Results reported in patent US20100168228A1, “NOVEL CHEMOTHERAPEUTIC AGENTS AGAINST INFLAMMATION AND CANCER” (RELIANCE LIFE SCIENCES PVT. LTD., priority 2006, published 2010).

Key:
Format in all cases: cell-based, human
phosphotyrosine = assay: Tyrosine phosphorylation assay (flow cytometry), Jurkat; settings: 24 h
Experimental: FIG. 20: Suppression of phosphotyrosine levels in Jurkat cells by compound 27. 1×10^6 cells were treated with indicated concentrations of the compound for 24 h. Cells were fixed and permeabilized as described in the “Materials and Methods”, and the extent of tyrosine phosphorylation in the cells was determined by measuring the increase in fluorescence produced by the FITC-labeled monoclonal antibody compared to the FITC-labeled isotype control antibody. 100 nM concentration was sufficient to bring significant reduction in tyrosine phosphorylation levels compared to the control values.
Tyrosine Phosphorylation assay: Tyrosine Phosphorylation assay was performed by the method described by Far, D. F. et. al., (Cytometry (1994) 15(4):327-334) and Park. J. B., et al. ((2003) Cancer Letters, 202 161-171). Briefly, cells (10^6) were washed with ice-cold PBS, pH 7.2 for 30 min at 4° C. After centrifugation and a PBS wash it was treated with 5 ml chilled 70% ethanol. […] Extent of tyrosine phosphorylation in the cells was determined by measuring the increase in fluorescence produced by the FITC-labeled monoclonal antibody compared to the FITC-labeled isotype control antibody. Fluorecence events for 10,000 cells were collected and analyzed by flow cytometry (FACSCalibur cytometer with CellQuest software, Becton Dicinson, San Jose, Calif.).

p65 = assay: Nuclear translocation of p65 by flow cytometry, Jurkat
Experimental: FIG. 5: Effect of CAMVE on TNF or LPS induced nuclear translocation of p65. A. HeLa cells either untreated or pretreated with 15 μM CAMVE for 3 h at 37° C. were stimulated with 0.1 nM TNF and immunocytochemical analysis were performed as described in “Materials and Methods”. B. Jurkat (5×10^5 cells/ml) cells were pretreated with indicated concentrations of CAMVE for 3 h and then stimulated with 0.1 nM of TNF for 30 min or 100 ng/ml of SA-LPS (serum activated LPS) for 15 min. After these treatments, cells were washed twice with PBS and nuclei were isolated by incubating the cells with […] Pipes-Triton buffer for 30 min at 4° C. Nuclei were stained for p65 and analyzed using FACS. (i). Representative histogram overlay showing TNF or LPS stimulated (1), basal (2), CAMVE stimulated (3), p65 staining in the nucleus. (ii). Ordinates gives the Isotype-corrected MFI for various treatments.
The assay was performed as described previously (Blaecke, A., Yves, D., Herbault, N., Jeannin, P., Bonnefoy, J. V., Beck, A., Aubry, J. P. (2002) Cytometry 48, 71-79). Briefly after stimulation, cells were washed twice with PBS. Nucleus was prepared by incubating the cells with 200 ul Pipes-Triton buffer for 30 min at 4° C. […] After washing, the nuclei were incubated with secondary FITC conjugated goat anti-mouse antibody (Sigma) for additional 30 mins at 4° C. and analysed using FACS. […]

NF-κB = NF-κB activation assay, MCF-7; settings: MCF-7, 15 μM 3 h, 0.1 nM TNF 30 min
Experimental: FIG. 4: Effect of CAMVE on NF-κB activation in different cell lines. A. HeLa, MCF-7, U937, were incubated at 37° C. for 3 h with 15 μM dose of CAMVE and then stimulated with 0.1 nM TNF for 30 min. After these treatments, nuclear extracts were prepared and assayed for NF-κB using BD Transfactor ELISA method. B. RAW 264.7 cells pretreated with indicated doses of CAMVE were stimulated with 100 ng/ml LPS for 30 min and assayed for NF-κB activation.
Cell pellet was resuspended in lysis buffer (10 mM HEPES, pH 7.9, 1.5 mM MgCl2, 10 mM KCl, 1 mM PMSF, 1 mMDTT, 0.5% NP 40, 0.1 mM EGTA and 0.1 mM EDTA) and allowed to swell on ice for 15 min, followed by centrifugation at 3300×g for 20 min. The cell pellet was resuspended in a volume of lysis buffer equal to the cell pellet volume. The cell suspension was slowly drawn down into a syringe and ejected the content in a single stroke. Disrupted cells were incubated for 15 min on ice, and the disrupted cell suspension was centrifuged at 10,000×g for 20 min at 4° C. […]
The assay was performed by using wells coated with oligonucleotides having the consensus DNA binding sites for the specific transcription factors. […] Bound transcription factor was detected by a specific Primary Antibody. […] After addition of the substrate, the Absorbance was recorded at 655 nm.

COc1cc([C@@H]2Oc3c(OC)cc(/C=C/C(=O)O)cc3[C@H]2C(=O)O)ccc1O [compound 27, 5-[(E)-2-carboxyvinyl]-2β-(4-hydroxy-3-methoxyphenyl)-7-methoxy-2,3-dihydro-1-benzofuran-3α-carboxylic acid]
phosphotyrosine level (mean fluorescence intensity) (phosphotyrosine; 100 nM, vs untreated controls): significant reduction in the mean fluorescence intensity
phosphotyrosine level (phosphotyrosine; all doses): reduced at all doses

COC(=O)c1ccc(OC(=O)/C=C/c2ccc(O)c(O)c2)c(OC)c1 [compound 1, Methyl 4-{[(2E)-3-(3,4-dihydroxyphenyl)prop-2-enoyl]oxy}-3-methoxybenzoate]
TNF or LPS mediated p65 translocation (p65; Jurkat nuclei, pretreated 3 h, 0.1 nM TNF or 100 ng/ml SA-LPS): blocked with CAMVE pretreatments
basal nuclear p65 staining (p65; Jurkat, CAMVE alone): not altered by incubation with CAMVE alone
TNF-induced NF-κB activation (NF-κB): blocks TNF-induced NF-κB activation
